Measured values taken from paper PMC5481828, “Construction of a synthetic metabolic pathway for biosynthesis of the non-natural methionine precursor 2,4-dihydroxybutyric acid” (Nature Communications, 2017).

Experiments:
Ec-LysC = Ec-LysC (Escherichia coli, UniProt P08660); details: 2 mM ATP, 5 mM MgCl2, 50 mM KCl, Hepes pH 7.5, 37 °C
Ms-Ssr = target: T1, Ms-Ssr (Metallosphaera sedula, UniProt A4YGN0); assay: NAD(P)H oxidation at […] nm; assay type: biochemical; details: NADPH 0.2 mM, Hepes pH 7.5, 50 mM KCl, 5 mM MgCl2, 37 °C; read-out: affinity
T1 construct: gene Msed_1424
T1 sequence (A4YGN0 1-360): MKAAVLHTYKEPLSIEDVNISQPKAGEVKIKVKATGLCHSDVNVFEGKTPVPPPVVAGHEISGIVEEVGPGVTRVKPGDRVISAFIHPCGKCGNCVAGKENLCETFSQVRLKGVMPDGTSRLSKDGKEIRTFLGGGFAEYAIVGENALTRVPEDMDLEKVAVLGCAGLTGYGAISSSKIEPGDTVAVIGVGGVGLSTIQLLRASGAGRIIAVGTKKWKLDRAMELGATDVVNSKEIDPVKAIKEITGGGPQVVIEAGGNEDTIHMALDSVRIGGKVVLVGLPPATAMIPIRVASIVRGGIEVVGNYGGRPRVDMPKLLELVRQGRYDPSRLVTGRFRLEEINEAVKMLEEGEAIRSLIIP

Mj-Asd = target: T2, Mj-Asd (Methanocaldococcus jannaschii, UniProt Q57658); assay: NADPH oxidation, substrate made in situ by malate kinase; assay type: biochemical; details: biosynthetic direction, 0.2 mM NADPH, 2 mM ATP, 20 mM malate, Hepes pH 7, 37 °C
T2 sequence (Q57658 1-354): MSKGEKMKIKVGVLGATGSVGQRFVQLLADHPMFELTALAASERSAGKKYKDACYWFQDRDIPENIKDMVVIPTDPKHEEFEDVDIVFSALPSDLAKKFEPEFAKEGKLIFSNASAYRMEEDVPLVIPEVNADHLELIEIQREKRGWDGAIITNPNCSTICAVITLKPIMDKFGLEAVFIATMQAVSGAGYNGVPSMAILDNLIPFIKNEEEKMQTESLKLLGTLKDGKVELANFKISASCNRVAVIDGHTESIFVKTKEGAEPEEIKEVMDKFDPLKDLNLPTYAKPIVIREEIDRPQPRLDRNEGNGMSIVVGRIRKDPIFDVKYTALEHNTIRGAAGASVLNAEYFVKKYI

Bs-Asd = Bs-Asd (Bacillus subtilis, UniProt Q04797, E218Q); assay: as above; assay type: biochemical; details: biosynthetic direction, 0.2 mM NADPH, 2 mM ATP, 20 mM malate, Hepes pH 7, 37 °C
Chain of Bs-Asd (Q04797 whole entry E218Q): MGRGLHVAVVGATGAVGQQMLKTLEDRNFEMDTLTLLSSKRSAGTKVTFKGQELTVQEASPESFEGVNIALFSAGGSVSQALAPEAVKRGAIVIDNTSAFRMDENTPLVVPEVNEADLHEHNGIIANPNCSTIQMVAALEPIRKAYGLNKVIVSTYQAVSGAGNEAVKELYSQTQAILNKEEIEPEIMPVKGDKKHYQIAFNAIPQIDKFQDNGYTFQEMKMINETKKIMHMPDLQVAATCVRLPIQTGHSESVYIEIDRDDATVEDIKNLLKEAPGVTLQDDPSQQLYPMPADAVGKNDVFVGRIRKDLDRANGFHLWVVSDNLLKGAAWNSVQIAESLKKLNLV

Chain of Ec-LysC (P08660 whole entry): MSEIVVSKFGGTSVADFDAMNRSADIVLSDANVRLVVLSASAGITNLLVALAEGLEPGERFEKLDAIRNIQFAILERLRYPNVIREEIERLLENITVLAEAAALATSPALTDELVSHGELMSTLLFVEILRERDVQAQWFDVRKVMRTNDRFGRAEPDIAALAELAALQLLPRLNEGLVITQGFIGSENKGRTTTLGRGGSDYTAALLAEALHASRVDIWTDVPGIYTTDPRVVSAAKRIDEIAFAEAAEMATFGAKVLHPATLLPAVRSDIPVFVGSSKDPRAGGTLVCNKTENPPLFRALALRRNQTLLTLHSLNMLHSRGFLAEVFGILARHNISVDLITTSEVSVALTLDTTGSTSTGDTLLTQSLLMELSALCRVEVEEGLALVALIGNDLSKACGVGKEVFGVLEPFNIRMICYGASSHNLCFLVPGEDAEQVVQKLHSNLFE

For `N[C@@H](CC(=O)O)C(=O)O` [(L)-aspartate], the Km (Ec-LysC) was “Catalytic efficiency (kcat/Km) of wild-type aspartate kinase”.

Compound `O=CC[C@H](O)C(=O)O` [MSA, malate semialdehyde] has a Km (Ms-Ssr) of 1100 µM.

With `O=C(C[C@H](O)C(=O)O)OP(=O)(O)O` [malyl-P, malyl-4-phosphate] the “NADPH oxidation, substrate made in situ by malate kinase” value (Mj-Asd) was “Enzymatic activities of wild-type Bs-Asd and Mj-Asd on malyl-P were approximately threefold lower” and the “NADPH oxidation, substrate made in situ by malate kinase” value (Bs-Asd) was “Bs-Asd E218Q mutant enzyme, which displayed an almost eightfold increased activity on malyl-P”.
